From ChEMBL document CHEMBL3108755, “Dermacozines H-J isolated from a deep-sea strain of Dermacoccus abyssi from Mariana Trench sediments” (J Nat Prod, 2014)

System: Radical scavenging activity
Assay: Antioxidant activity assessed as DPPH radical scavenging activity
Assay type: functional

Structure (SMILES) | IC50 [µM]
CC(=O)NC(CSc1ccc(C(N)=O)c2c1Nc1c(C(N)=O)cc(C(=O)c3ccccc3)cc1N2C)C(=O)O (stereo not given) | 19.6
CN1c2cc(C(=O)c3ccccc3)cc(C(=O)O)c2Nc2cccc(C(N)=O)c21 | 8.4
CN1c2cc(C=O)cc(C(=O)O)c2Nc2cccc(C(N)=O)c21 | 18.8
CN1c2cccc(C(N)=O)c2Nc2c(C(=O)c3ccccc3)ccc(C(N)=O)c21 | 34.6
O=C1O[C@H]([C@@H](O)CO)C(O)=C1O [ASCORBIC ACID] | 12.1
